Marks after values point to notes of the source that are not given here.
How the values were obtained:
PPARα [1] = target: T1, PPARα (Homo sapiens (Human), UniProt Q07869); test: Activation of transient transfected PPAR α in HEK293 cells (GAL4-hPPAR α luciferase assay); type: cell-based; settings: HEK293 transfected with GAL4-hPPAR α, 24 h incubation
Experimental: Test example 1: Experiment of the compounds on activation of transient transfected PPAR α in HEK293 cells
Plasmid: pcDNA3.1(+)-GAL4-hPPAR α, customized by Nanjing Kebai Biotechnology Co., Ltd.
(§1) Liposome: PGL4.35, customized by Nanjing Kebai Biotechnology Co., Ltd.
(§2) Cell: human embryonic kidney cells HEK293, purchased from ATCC.
(§3) Transfection reagent: Lipofectamine Reagent 3000 purchased from Invitrogen.
(§4) Assay kit: Bright Glo™ Luciferase Assay System purchased from Promega.
(§5) HEK293 cells were incubated in DMEM medium containing 10% of fetal bovine serum at 37° C. in the presence of 5% of CO2. 3×10^5/ml cells were plated in each well of the 6-well plate. When the cell convergence degree reached 50%-80%, 5 μg of liposome PGL4.35 and 5 μg of expression plasmid pcDNA3.1(+)-GAL4-hPPAR α were added to transfect the cells for 24 h and then the cells were collected. The transfected cells were plated in the 96-well plate and the compounds of the application in different concentrations were added, incubated for 24 h, and Bright Glo™ Luciferase Assay System reagent was added for luciferase assay.
Target sequence in this assay (Q07869 whole entry, looked up, the tested form may be a part): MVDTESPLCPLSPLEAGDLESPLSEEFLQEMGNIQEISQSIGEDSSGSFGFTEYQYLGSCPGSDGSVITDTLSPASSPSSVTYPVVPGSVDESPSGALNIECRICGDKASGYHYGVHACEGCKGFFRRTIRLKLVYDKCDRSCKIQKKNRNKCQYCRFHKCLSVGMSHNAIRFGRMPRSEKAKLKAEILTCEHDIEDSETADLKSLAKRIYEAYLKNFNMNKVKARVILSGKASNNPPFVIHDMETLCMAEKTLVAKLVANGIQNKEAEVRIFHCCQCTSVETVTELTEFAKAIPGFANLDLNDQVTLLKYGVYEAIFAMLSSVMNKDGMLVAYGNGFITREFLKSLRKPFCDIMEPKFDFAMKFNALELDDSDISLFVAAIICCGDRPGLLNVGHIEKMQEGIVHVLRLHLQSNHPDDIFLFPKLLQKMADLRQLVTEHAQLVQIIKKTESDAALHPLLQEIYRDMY

[2] = Cytotoxicity test on HEK293 cells (CellTiter Glo); type: cell-based; settings: human, incubated for 3 days
Experimental: (§6) Test Example 4: Cytotoxicity Test of Compound on HepG2 & Hek293 Cells
(§7) Cells: human hepatocyte HepG2, purchased from ATCC; Human embryonic kidney cells HEK293: purchased from ATCC;
(§8) Assay reagent: CellTiter Glo® Luminescent Cell Viability Assay, purchased from Promega.
(§9) HepG2 and HEK293 cells were incubated in DMEM/F12 medium containing 10% of fetal bovine serum respectively. A proper amount of cells were plated into a 96-well plate, the plate was placed in an incubator overnight, and the culture medium was removed, and replaced with a complete culture medium containing the compound of the application, and incubated for 3 days. On day 4, an assay reagent CellTiter Glo was added to each well, and the relative luminous unit (RLU) of each well was determined by chemiluminescence. CC50 values of the compound of the application to HepG2 and HEK293 cells were calculated by GraphPad software, and the results were shown in Table 3.

PPARγ = PPARγ (Homo sapiens (Human), UniProt P37231); test: Activation of PPARγ in genetically engineered CHO-K1 cells (PathHunter); type: cell-based; settings: PathHunter CHO-K1 PPARγ cell line, agonist format, 6 hours
Chain of PPARγ (P37231 whole entry): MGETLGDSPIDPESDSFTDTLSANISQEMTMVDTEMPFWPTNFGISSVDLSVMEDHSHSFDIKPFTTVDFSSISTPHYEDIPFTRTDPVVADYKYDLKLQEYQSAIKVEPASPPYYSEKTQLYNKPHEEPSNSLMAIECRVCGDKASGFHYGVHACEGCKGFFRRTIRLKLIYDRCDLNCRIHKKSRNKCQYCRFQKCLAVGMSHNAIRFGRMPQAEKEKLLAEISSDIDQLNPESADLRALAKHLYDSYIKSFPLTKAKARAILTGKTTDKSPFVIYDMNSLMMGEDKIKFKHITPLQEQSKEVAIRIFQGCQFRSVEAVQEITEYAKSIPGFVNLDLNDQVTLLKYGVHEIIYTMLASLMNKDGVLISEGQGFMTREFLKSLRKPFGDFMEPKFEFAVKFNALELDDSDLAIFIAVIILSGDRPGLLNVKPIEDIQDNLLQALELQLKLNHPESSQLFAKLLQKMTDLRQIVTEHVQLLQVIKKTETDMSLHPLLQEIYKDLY
Source text: (§10) Test Example 3: Experiment of Compounds on Activation of PPAR α, δ and γ in Genetically Engineered CHO-K1 Cells
(§11) Cell: PathHunter® CHO-K1 PPARα Protein Interaction Cell Line, PathHunter® CHO-K1 PPARδ Protein Interaction Cell Line and PathHunter® CHO-K1 PPARγ Protein Interaction Cell Line, provided by DiscoverX®.
(§12) Assay kit: PathHunter® Detection Kit, provided by DiscoverX®.
(§13) 1) Cell Handling: PathHunter NHR (nuclear hormone receptor, PPARα, δ, γ) cell lines were expanded from freezer stocks according to standard procedures. Cells were seeded in a total volume of 20 μL into white walled, 384-well microplates and incubated at 37° C., 5% CO2 for the appropriate time prior to testing. […]
(§14) 3) Signal detection: Assay signal was generated through a single addition of 12.5 or 15 μL (50% v/v) of PathHunter Detection reagent cocktail, followed by one-hour-incubation at room temperature. Microplates were read following signal generation with a PerkinElmer Envision™ instrument for chemiluminescent signal detection.
(§15) 4) Data analysis: Both compound activity and EC50S were analyzed using CBIS data analysis suite (ChemInnovation, CA). For agonist mode assays, percentage activity was calculated using the following formula: % Activity=100%×(mean RLU of test sample−mean RLU of vehicle control)/(mean MAX control ligand−mean RLU of vehicle control).

PPARδ [3] = target: T2, PPARδ (Homo sapiens (Human), UniProt Q03181); test: Activation of transient transfected PPAR δ in HEK293 cells (GAL4-hPPAR δ luciferase assay); type: cell-based; settings: HEK293 transfected with GAL4-hPPAR δ, 24 h incubation
Experimental: Test Example 2: Experiment of the Compounds on Activation of Transient Transfected PPAR δ in HEK293 Cells
Plasmid: pcDNA3.1(+)-GAL4-hPPAR δ, customized by Nanjing Kebai Biotechnology Co., Ltd.
as §1, §2, §3, §4
as §5, with “δ” for “α”, “Then, the” for “The”, “reagent” for “reagent was added”, “assay was added.” for “assay.”
Target sequence in this assay (Q03181 whole entry, looked up, the tested form may be a part): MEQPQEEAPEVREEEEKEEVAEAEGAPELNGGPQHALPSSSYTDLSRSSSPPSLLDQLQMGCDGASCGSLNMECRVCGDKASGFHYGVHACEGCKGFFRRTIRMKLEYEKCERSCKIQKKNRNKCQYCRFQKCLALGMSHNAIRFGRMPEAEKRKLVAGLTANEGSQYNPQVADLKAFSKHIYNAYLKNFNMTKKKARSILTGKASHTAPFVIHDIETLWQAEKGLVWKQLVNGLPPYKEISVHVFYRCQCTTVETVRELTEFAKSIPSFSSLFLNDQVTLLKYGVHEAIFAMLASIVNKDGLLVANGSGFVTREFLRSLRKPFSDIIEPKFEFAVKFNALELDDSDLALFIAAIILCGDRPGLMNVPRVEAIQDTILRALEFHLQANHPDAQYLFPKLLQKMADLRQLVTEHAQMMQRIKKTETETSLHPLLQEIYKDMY

PPARδ [4] = target: T2, PPARδ; test: Activation of PPARδ in genetically engineered CHO-K1 cells (PathHunter); type: cell-based; settings: PathHunter CHO-K1 PPARδ cell line, agonist format, 6 hours
Source text: as §10, §11, §12, §13, §14, §15
Target sequence in this assay (Q03181 whole entry, the tested form may be a part): as the sequence (Q03181 whole entry, looked up, the tested form may be a part) above

[5] = system: MCD model of non-alcoholic steatohepatitis; test: In vivo efficacy study in the MCD model of non-alcoholic steatohepatitis; set-up: species or system C57 Mice; settings: MCD diet mice
Experimental: Test Example 6: In Vivo Efficacy Study of Compound in the MCD Model of Non-Alcoholic Steatohepatitis In this example, comparative test between compound GFT505 from WO2018133705A1 and compounds of the invention was conducted, so as to show the advantages of compounds of the invention. C57 Mice at 8-10 weeks of age (purchased from Vital River Laboratories) were body-weight matched and randomly divided into groups of normal, model, control and test. Mice in normal group were fed with standard chow for 9 weeks. Mice in model group, control group and test group were fed with MCD diet (Methionine-Choline Deficient Diet, Research Diets) for 9 weeks to induce NASH Model. During weeks 5-9 of the 9-week course of MCD diet, the control group and the test group were treated with GFT505 and TM4 of the invention, respectively, and the normal group and model group were treated with 0.5% MC. The dosage regimen was specified in table 5. [table] Animals were dissected after administration on day 35, livers were collected for H&E staining (hematoxylin-eosin staining) and sirius red staining. And then NAFLD activity score, including liver steatosis score, inflammation score and ballooning score, and liver fibrosis score were conducted.

[6] = Cytotoxicity test on HepG2 cells (CellTiter Glo); type: cell-based; settings: human, incubated for 3 days
Experimental: as §6, §7, §8, §9

[7] = target: hERG potassium ion channel (Homo sapiens (Human), UniProt Q12809); test: Predictor hERG fluorescence polarization; type: binding
Chain of hERG potassium ion channel (Q12809 whole entry): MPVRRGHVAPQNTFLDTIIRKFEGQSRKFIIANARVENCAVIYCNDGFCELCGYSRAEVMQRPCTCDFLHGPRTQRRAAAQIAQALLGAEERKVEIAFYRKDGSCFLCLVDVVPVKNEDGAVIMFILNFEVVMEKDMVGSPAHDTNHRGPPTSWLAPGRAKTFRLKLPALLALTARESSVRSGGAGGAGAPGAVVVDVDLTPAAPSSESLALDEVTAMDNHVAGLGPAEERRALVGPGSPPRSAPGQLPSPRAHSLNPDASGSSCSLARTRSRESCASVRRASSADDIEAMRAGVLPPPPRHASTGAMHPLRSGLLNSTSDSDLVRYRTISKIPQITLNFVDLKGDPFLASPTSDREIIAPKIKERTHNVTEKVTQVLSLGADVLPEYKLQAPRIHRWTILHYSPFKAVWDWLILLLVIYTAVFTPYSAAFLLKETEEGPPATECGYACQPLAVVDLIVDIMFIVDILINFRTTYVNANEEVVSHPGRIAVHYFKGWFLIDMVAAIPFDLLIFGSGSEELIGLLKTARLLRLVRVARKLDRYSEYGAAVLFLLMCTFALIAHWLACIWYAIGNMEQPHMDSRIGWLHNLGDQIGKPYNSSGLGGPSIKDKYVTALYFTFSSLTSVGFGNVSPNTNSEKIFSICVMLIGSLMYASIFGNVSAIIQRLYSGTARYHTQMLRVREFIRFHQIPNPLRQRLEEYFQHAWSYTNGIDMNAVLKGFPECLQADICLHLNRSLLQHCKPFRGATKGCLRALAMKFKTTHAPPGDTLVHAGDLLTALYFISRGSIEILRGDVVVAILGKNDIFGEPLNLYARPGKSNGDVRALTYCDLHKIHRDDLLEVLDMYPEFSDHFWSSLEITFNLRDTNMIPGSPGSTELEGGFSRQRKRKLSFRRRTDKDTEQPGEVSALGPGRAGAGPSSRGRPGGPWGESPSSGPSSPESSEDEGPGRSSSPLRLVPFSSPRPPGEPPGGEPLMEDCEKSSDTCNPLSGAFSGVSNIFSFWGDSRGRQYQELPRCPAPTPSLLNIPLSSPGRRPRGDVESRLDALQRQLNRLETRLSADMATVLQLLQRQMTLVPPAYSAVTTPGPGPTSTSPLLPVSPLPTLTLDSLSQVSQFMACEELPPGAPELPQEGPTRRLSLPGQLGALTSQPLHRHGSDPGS
Experimental: Test Example 5: In Vitro Safety Test
The effect of the compound on hERG potassium ion channel was tested by Predictor™ hERG fluorescence polarization.

PPARα [8] = target: T1, PPARα; test: Activation of PPARα in genetically engineered CHO-K1 cells (PathHunter); type: cell-based; settings: PathHunter CHO-K1 PPARα cell line, agonist format, 6 hours
Source text: as §10, §11, §12, §13, §14, §15
Target sequence in this assay (Q07869 whole entry, the tested form may be a part): as the sequence (Q07869 whole entry, looked up, the tested form may be a part) above

[9] = 1 mg/kg intragastric once every day for 35 days
[10] = 1 mg/kg, 35 days, result in words

COc1nc2ccccc2cc1C(=O)/C=C/c1cc(C)c(OC(C)(C)C(=O)O)c(C)c1 [Example 5, (E)-2-(4-(3-(2-methoxyquinolin-3-yl)-3-oxo-1-propen-1-yl)-2,6-dimethylphenoxy)-2-met hylpropionic acid]
EC50 (PPARα [1]): 28.3 nM | CC50 at 3 days [2]: 7130 nM | EC50 (PPARγ): 174 nM | EC50 (PPARδ [3]): 556 nM | EC50 (PPARδ [4]): 797 nM | Liver fibrosis score (Mean ± SD) [5, 9]: 0.88 ± 0.35^b | NAFLD activity score (Mean ± SD) [5, 9]: 3.00 ± 0.93^b | Reduction of NAFLD activity score compared with model group [5, 10]: significant reduction | Reduction of liver fibrosis score compared with model group [5, 10]: significant reduction | CC50 at 3 days [6]: 13000 nM | IC50 [7]: > 10000 nM | EC50 (PPARα [8]): 23 nM

COc1nc2ccccc2cc1C(=O)CCc1cc(C)c(OC(C)(C)C(=O)O)c(C)c1 [TM42, 2-(4-(3-(2-methoxyquinolin-3-yl)-3-oxopropyl)-2,6-dimethylphenoxy)-2-methylpropanoic acid]
EC50 (PPARγ): 1950 nM | EC50 (PPARδ [4]): 496 nM | EC50 (PPARα [8]): 63 nM

Source: patent US11261170B2, “Aromatic compound, pharmaceutical composition and use thereof” (Sichuan Kelun-Biotech Biopharmaceutical Co., Ltd., priority 2017, dated 2022)
